Experiment: xn = mol fraction of the nth substance listed
Conditions: 101 kPa, Liquid; for viscosity: Falling or rolling sphere viscometry; for mass density: Vibrating tube method

CCCC[NH3+].O=[N+]([O-])[O-] [n-butylammonium nitrate] + CO
Conditions | mass density, 293.15 K [kg/m3] | mass density, 298.15 K [kg/m3] | viscosity, 293.15 K [mPa·s] | viscosity, 298.15 K [mPa·s] | viscosity, 303.15 K [mPa·s]
x1 = 0.0999 | 884.86 | 880.73 | 1.377 | 1.267 | 1.173
x1 = 0.1998 | 944.76 | 940.97 | 2.723 | 2.466 | 2.248
x1 = 0.3012 | 987.04 | 983.43 | 4.923 | 4.382 | 3.934
x1 = 0.4005 | 1016.59 | 1013.11 | 9.129 | 8 | 7.037
x1 = 0.5015 | 1039.93 | 1036.55 | 14.79 | 12.8 | 11.16
x1 = 0.6507 | 1065.48 | 1062.21 | 28.64 | 24.08 | 20.59
x1 = 0.8007 | 1085.18 | 1081.98 | 51.33 | 42.07 | 35.23
x1 = 0.9007 | 1096.21 | 1093.04 | 77.73 | 64.34 | 53.02
x1 = 1 | 1104.68 | 1101.52 | 111.35 | 89.95 | 73.04

Source: the NIST ThermoML archive (doi:10.1016/j.jct.2012.10.008)
